The text below walks through data of patent publication US20250018046A1, “COMPOUNDS FOR TARGETING DEGRADATION OF IRAK4 PROTEINS” (BIOGEN MA INC, priority 2021, published 2025).

In the experiment the target is T1, IRAK4 (Homo sapiens, UniProt Q9NWZ3).
T1 construct: knocking-in a HiBiT fusion tag into the C-terminal of the IRAK4 gene in 293T cells; host or cells: 293T cells, knock-in of HiBiT at the endogenous IRAK4 locus
T1 sequence (Q9NWZ3 1-460): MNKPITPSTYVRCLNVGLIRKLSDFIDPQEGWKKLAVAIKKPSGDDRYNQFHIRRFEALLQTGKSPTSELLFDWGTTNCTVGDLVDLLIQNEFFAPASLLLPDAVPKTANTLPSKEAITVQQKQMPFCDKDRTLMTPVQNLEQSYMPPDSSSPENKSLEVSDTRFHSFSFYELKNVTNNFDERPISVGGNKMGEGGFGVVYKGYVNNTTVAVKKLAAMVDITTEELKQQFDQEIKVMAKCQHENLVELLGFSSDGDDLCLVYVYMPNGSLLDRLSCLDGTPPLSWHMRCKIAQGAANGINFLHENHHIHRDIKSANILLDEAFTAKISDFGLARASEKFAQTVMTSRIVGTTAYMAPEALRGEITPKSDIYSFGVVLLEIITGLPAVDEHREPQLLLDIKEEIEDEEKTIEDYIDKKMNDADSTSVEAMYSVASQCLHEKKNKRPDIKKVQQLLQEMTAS
The experiment can be described thus: IRAK4 degradation assay using the HiBiT Method. Type of experiment: cell-based. Conditions: 293T cells expressing HiBiT-tagged IRAK4; 6-hour incubation; Nano-Glo HiBiT Lytic Assay luminescence. Put shortly: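 HEK293T cells with HiBiT knocked into the IRAK4 C-terminus, 10,000 cells per well, treated with an 11-point half-log series […] in duplicate for 6 hours at 37° C., 5% CO2. Remaining IRAK4 quantified by Nano-Glo HiBiT lytic luminescence against DMSO controls.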
On the technique in general: HiBiT is a short tag that completes a luciferase, so light tracks the accessible tagged protein.
For the compound `CC(C)Oc1cc2nn(C3CCN(CC(=O)N4CCC(c5ccc(NC6CCC(=O)NC6=O)cc5F)CC4)CC3)cc2cc1NC(=O)c1cccc(C(F)(F)F)n1` (stereo not drawn) [Example 50, N-[2-[1-[2-[4-[4-[(2,6-dioxo-3-piperidyl)amino]-2-fluoro-phenyl]-1-piperidyl]-2-oxo-ethyl]-4-piperidyl]-6-isopropoxy-indazol-5-yl]-6-(trifluoromethyl)pyridine-2-carboxamide], the DC50 is 0.01 to 0.1 µM.

Turning to `CC(C)Oc1cc2nc([C@H]3CC[C@H](CN(C)C4CCN(Cc5cccc(NC6CCC(=O)NC6=O)c5)CC4)CC3)cn2cc1NC(=O)c1cccc(C(F)(F)F)n1` (stereo partly drawn) [Example 46, N-[2-[4-[[[1-[[3-[(2,6-dioxo-3-piperidyl)amino]phenyl]methyl]-4-piperidyl]-methyl-amino]methyl]cyclohexyl]-7-isopropoxy-imidazo[1,2-a]pyridin-6-yl]-6-(trifluoromethyl) pyridine-2-carboxamide], the half-maximal degradation concentration (DC50) is above 1 µM.

Compound `CC(C)Oc1cc2nc([C@@H](Cc3ccccc3)NC(=O)CN3CCC(c4ccc(C5CCC(=O)NC5=O)cc4)CC3)cn2cc1NC(=O)c1cccc(C(F)(F)F)n1` (stereo partly drawn) [Example 78, N-[2-[(1R)-1-[[2-[4-[4-(2,6-dioxo-3-piperidyl)phenyl]-1-piperidyl]acetyl]amino]-2-phenyl-ethyl]-7-isopropoxy-imidazo[1,2-a]pyridin-6-yl]-6-(trifluoromethyl)pyridine-2-carboxamide] showed a DC50 of 0.5 to 1 µM.

As for `CC(C)Oc1cc2nc(C3CCN(C(=O)CN4CCN(c5ccc(NC6CCC(=O)NC6=O)cc5)CC4)CC3)cn2cc1NC(=O)c1cccc(C(F)(F)F)n1` (stereo not drawn) [Example 10, N-[2-[1-[2-[4-[4-[(2,6-dioxo-3-piperidyl)amino]phenyl]piperazin-1-yl]acetyl]-4-piperidyl]-7-isopropoxy-imidazo[1,2-a]pyridin-6-yl]-6-(trifluoromethyl)pyridine-2-carboxamide], the DC50 is 0.1 to 0.5 µM.

As for `CC(C)Oc1cc2nn(C3CCN(CC(=O)N4CCC(c5ccc(NC6CCC(=O)NC6=O)cc5)CC4)CC3)cc2cc1NC(=O)c1cccc(C(F)(F)F)n1` (stereo not drawn) [Example 49, N-(2-(1-(2-(4-(4-((2,6-dioxopiperidin-3-yl)amino)phenyl)piperidin-1-yl)-2-oxoethyl)piperidin-4-yl)-6-isopropoxy-2H-indazol-5-yl)-6-(trifluoromethyl) picolinamide], the DC50 lay in the range of 0.01 to 0.1 µM.

Turning to `CC(C)Oc1cc2nc(C3CCN(CC(=O)N4CCC(c5ccc(NC6CCC(=O)NC6=O)cc5)CC4)CC3)cn2cc1NC(=O)c1ccc(F)cc1F` (stereo not drawn) [Example 59, N-(2-(1-(2-(4-(4-((2,6-dioxopiperidin-3-yl)amino)phenyl)piperidin-1-yl)-2-oxoethyl)piperidin-4-yl)-7-isopropoxyimidazo[1,2-a]pyridin-6-yl)-2,4-difluorobenzamide], the DC50 lay in the range of 0.01 to 0.1 µM.

As for `CC(C)Oc1cc2nc(C3CCN(C(=O)c4ccccc4CNC(=O)c4ccc(OC5CCC(=O)NC5=O)cc4)CC3)cn2cc1NC(=O)c1cccc(C(F)(F)F)n1` (stereo not drawn) [Example 82, N-[2-[1-[2-[[[4-[(2,6-dioxo-3-piperidyl)oxy]benzoyl]amino]methyl]benzoyl]-4-piperidyl]-7-isopropoxy-imidazo[1,2-a]pyridin-6-yl]-6-(trifluoromethyl)pyridine-2-carboxamide], the DC50 was 0.1 to 0.5 µM.

As for `CC(C)Oc1cc2nc(C3CCN(C(=O)CN4CCN(c5ccc(C6CCC(=O)NC6=O)cc5)CC4)CC3)cn2cc1NC(=O)c1cccc(C(F)(F)F)n1` (stereo not drawn) [Example 5, N-[2-[1-[2-[4-[4-(2,6-dioxo-3-piperidyl)phenyl]piperazin-1-yl]acetyl]-4-piperidyl]-7-isopropoxy-imidazo[1,2-a]pyridin-6-yl]-6-(trifluoromethyl)pyridine-2-carboxamide], the DC50 is 0.1 to 0.5 µM.

Compound `CC(C)Oc1cc2nc(C3CCN(CC(=O)N4CCN(c5ccc(NC6CCC(=O)NC6=O)cc5)CC4)CC3)cn2cc1NC(=O)c1cccc(C(F)(F)F)n1` (stereo not drawn) [Example 27, N-[2-[1-[2-[4-[4-[(2,6-dioxo-3-piperidyl)amino]phenyl]piperazin-1-yl]-2-oxo-ethyl]-4-piperidyl]-7-isopropoxy-imidazo[1,2-a]pyridin-6-yl]-6-(trifluoromethyl)pyridine-2-carboxamide] came in with a DC50 of 0.1 to 0.5 µM.

`CC(C)Oc1cc2nc(C3CCN(CC(=O)N4CCC(c5ccc(NC6CCC(=O)NC6=O)cc5)CC4)CC3)cn2cc1NC(=O)c1ccn(C)n1` (stereo not drawn) [Example 60, N-[2-[1-[2-[4-[4-[(2,6-dioxo-3-piperidyl)amino]phenyl]-1-piperidyl]-2-oxo-ethyl]-4-piperidyl]-7-isopropoxy-imidazo[1,2-a]pyridin-6-yl]-1-methyl-pyrazole-3-carboxamide] showed a DC50 of 0.01 to 0.1 µM.

`CC(C)Oc1cc2nc(C3CCN(CCN4CCC(c5ccc(CN6CCC(=O)NC6=O)cc5)CC4)CC3)cn2cc1NC(=O)c1cccc(C(F)(F)F)n1` [Example 62, N-[2-[1-[2-[4-[4-[(2,4-dioxohexahydropyrimidin-1-yl)methyl]phenyl]-1-piperidyl]ethyl]-4-piperidyl]-7-isopropoxy-imidazo[1,2-a]pyridin-6-yl]-6-(trifluoromethyl)pyridine-2-carboxamide] displayed a DC50 of 0.1 to 0.5 µM.

`CC(C)Oc1cc2nc([C@H]3CC[C@H](CN4CCC(c5ccc(C6CCC(=O)NC6=O)cc5F)CC4)CC3)cn2cc1NC(=O)c1cccc(C(F)(F)F)n1` (stereo partly drawn) [Example 41, N-[2-[4-[[4-[4-(2,6-dioxo-3-piperidyl)-2-fluoro-phenyl]-1-piperidyl]methyl]cyclohexyl]-7-isopropoxy-imidazo[1,2-a]pyridin-6-yl]-6-(trifluoromethyl)pyridine-2-carboxamide] came in with a DC50 of 0.1 to 0.5 µM.

Compound `CC(C)Oc1cc2nc([C@H]3CC[C@H](CN(C)C4CCN(c5cccc6c5n(C)c(=O)n6C5CCC(=O)NC5=O)CC4)CC3)cn2cc1NC(=O)c1cccc(C(F)(F)F)n1` (stereo partly drawn) [Example 42, N-[2-[4-[[[1-[1-(2,6-dioxo-3-piperidyl)-3-methyl-2-oxo-benzimidazol-4-yl]-4-piperidyl]-methyl-amino]methyl]cyclohexyl]-7-isopropoxy-imidazo[1,2-a]pyridin-6-yl]-6-(trifluoromethyl)pyridine-2-carboxamide] gave a DC50 of 0.1 to 0.5 µM.

`CC(C)Oc1cc2nc(C3CCN(CCN4CCC(c5ccc(NC6CCC(=O)NC6=O)cc5)CC4)CC3)cn2cc1NC(=O)c1cccc(C(F)(F)F)n1` (stereo not drawn) [Example 66, N-[2-[1-[2-[4-[4-[(2,6-dioxo-3-piperidyl)amino]phenyl]-1-piperidyl]ethyl]-4-piperidyl]-7-isopropoxy-imidazo[1,2-a]pyridin-6-yl]-6-(trifluoromethyl)pyridine-2-carboxamide]: the DC50 was in the range of 0.1 to 0.5 µM.

`CC(C)Oc1cc2nc(C3CCN(CC(=O)N4CCC(Oc5ccc(NC6CCC(=O)NC6=O)cc5)CC4)CC3)cn2cc1NC(=O)c1cccc(C(F)(F)F)n1` (stereo not drawn) [Example 86, N-[2-[1-[2-[4-[4-[(2,6-dioxo-3-piperidyl)amino]phenoxy]-1-piperidyl]-2-oxo-ethyl]-4-piperidyl]-7-isopropoxy-imidazo[1,2-a]pyridin-6-yl]-6-(trifluoromethyl)pyridine-2-carboxamide] gave a DC50 of 0.1 to 0.5 µM.

A word on the DC50: it is the concentration giving 50% degradation. The low end stands for a more potent degrader, the high end for a less potent degrader.
